The values below are quoted from earlier work in article PMC9290462 (British Journal of Clinical Pharmacology, 2020).

The test system of data set [1] is patients with moderate‐to‐severe SLE.

In the case of `Cc1c(-c2c(F)cc(C(N)=O)c3[nH]c4c(c23)CC[C@H](C(C)(C)O)C4)cccc1-n1c(=O)c2cccc(F)c2n(C)c1=O` [BMS‐986142], the “alanine aminotransferase, aspartate aminotransferase and lipase” value is listed as “associated with increases”. `C=CC(=O)N1CCC(CNc2ncnc(N)c2-c2ccc(Oc3ccccc3)cc2)CC1` [Evobrutinib, evobrutinib]: the “alanine aminotransferase, aspartate aminotransferase and lipase” value was “associated with increases”. `C[C@H]1CN(C2COC2)CCN1c1ccc(Nc2cc(-c3ccnc(N4CCn5c(cc6c5CC(C)(C)C6)C4=O)c3CO)cn(C)c2=O)nc1` [fenebrutinib]: in the data set with healthy volunteers, the bleeding events entry is “no reported bleeding events” and the tolerability result is “well tolerated”. Also, in data set [1], the primary efficacy endpoint result is “failed to meet its primary efficacy endpoint”.
